Source: patent US7279099B2, “Sludge treatment process” (FKOS, LLC, priority 2004, dated 2007)
Read-outs that look alike come from different tables or passages of the source.

Tests used:
viruses = assay: Disinfection of biosolids with chlorine dioxide: viruses
bacteria = assay: Disinfection of biosolids with chlorine dioxide: bacteria
Ascaris eggs [1] = assay: Disinfection of biosolids with chlorine dioxide alone: Ascaris eggs; settings: concentrations as high as 1000 ppm
Ascaris eggs [2] = settings: for Time to PFRP: closed system
[3] = 1500 mg/L
Ascaris = settings: biosolids, closed system; cited from earlier work
Fecal coliform = settings: ozone at 20–30 mg/L at pH 3.0 for at least two hours; cited from earlier work
poliovirus = settings: ozone at 20–30 mg/L at pH 3.0 for at least two hours; cited from earlier work
C. perfringens spores = settings: only ozone used; cited from earlier work
[4] = 24 h, 500 mg/L

## [O][Cl+][O-] [chlorine dioxide]
viruses
  inactivation of viruses: capable of inactivating
bacteria
  inactivation of bacteria: capable of inactivating
Ascaris eggs [1]
  inactivation of Ascaris eggs: not able to inactivate

## O=NO [nitrous acid]
Ascaris eggs [2]; predicted using Equation 2
  remaining HNO2 dose for PFRP to be reached in two hours: at least 25.46 mg/g
[3]
  remaining nitrous acid: below 500 mg/L
Ascaris
  concentration capable of Ascaris inactivation: above 400 mg/L

## O=[O+][O-] [ozone]
Fecal coliform
  Fecal coliform reduction: reduced to a non-detectable level
poliovirus
  inactivation of poliovirus: at least 90%
C. perfringens spores
  inactivation of C. perfringens spores: not effective

## O=NO [sodium nitrite]
Ascaris eggs [2]; TSS 3.02 %, initial NO2 dose 697 mg/L
  Time to PFRP: 12 h
Ascaris eggs [2]; TSS 3.02 %, initial NO2 dose 1046 mg/L
  Time to PFRP: 2 h
Ascaris eggs [2]; TSS 5.54 %, initial NO2 dose 1754 mg/L
  Time to PFRP: 2 h
Ascaris eggs [2]; TSS 5.54 %, initial NO2 dose 2573 mg/L
  Time to PFRP: 2 h
[4]
  remaining sodium nitrite level: 150 to 250 mg/L
697 mg/L
  Average [NO2] Remaining: 340 mg/L
1046 mg/L
  Average [NO2] Remaining: 490 mg/L
1754 mg/L
  Average [NO2] Remaining: 1150 mg/L
2573 mg/L
  Average [NO2] Remaining: 1580 mg/L
